Like-named read-outs stand apart in the source and are kept apart here.
Legend:
chymotrypsin [1] = test: inhibition of chymotrypsin by m-amidinophenylmethylsulfonylfluoride; format: biochemical; settings: 30 minutes, four-fold molar excess
Experimental: (§1) m-Amidinophenylmethylsulfonylfluoride was tested for inhibitory activity against bovine trypsin and chymotrypsin.

Trypsin [2] = target: T1, Trypsin (Bos taurus, UniProt P00760); test: inactivation of trypsin by meta amidinophenylmethylsulfonylfluoride; format: biochemical, bovine; settings: equimolar or greater amounts of reagent; FIG. 2
T1 sequence (P00760 24-246): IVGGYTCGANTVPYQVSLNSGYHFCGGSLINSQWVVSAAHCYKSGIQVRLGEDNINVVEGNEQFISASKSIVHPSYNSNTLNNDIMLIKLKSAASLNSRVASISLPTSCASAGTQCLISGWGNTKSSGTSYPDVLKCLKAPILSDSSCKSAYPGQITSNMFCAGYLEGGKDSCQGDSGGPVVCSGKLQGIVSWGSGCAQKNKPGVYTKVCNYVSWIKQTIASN
Experimental: as §1

Trypsin [3] = target: T1, Trypsin; test: inhibition/inactivation of bovine trypsin; format: biochemical; settings: for % Activity Remaining: Trypsin 60.6 μM, PAPMSF 127 μM
Cl-r = test: inhibition/inactivation of human Clr; format: biochemical
serine proteases [4] = test: serine protease inactivation by known inactivators (background); format: biochemical; settings: approximately 2:1 reagent:enzyme; Table 1
chymotrypsin [5] = test: inhibition of bovine chymotrypsin; format: biochemical; settings: neutral pH, approximately 10-fold excess of reagent over enzyme; FIG. 1
Thrombin = Thrombin (Homo sapiens, UniProt P00734); test: inhibition/inactivation of human thrombin; format: biochemical; settings: for % Activity Remaining: Thrombin 74.5 μM, PAPMSF 159 μM
serine proteases [6] = test: reactivity of para versus meta form
Cl-s = target: T2, Cl-s (Homo sapiens, UniProt P09871); test: inhibition/inactivation of human Cls; format: biochemical; settings: for % Activity Remaining: Cl-s 27.5 μM, PAPMSF 64 μM
T2 sequence (P09871 438-688 limits assumed): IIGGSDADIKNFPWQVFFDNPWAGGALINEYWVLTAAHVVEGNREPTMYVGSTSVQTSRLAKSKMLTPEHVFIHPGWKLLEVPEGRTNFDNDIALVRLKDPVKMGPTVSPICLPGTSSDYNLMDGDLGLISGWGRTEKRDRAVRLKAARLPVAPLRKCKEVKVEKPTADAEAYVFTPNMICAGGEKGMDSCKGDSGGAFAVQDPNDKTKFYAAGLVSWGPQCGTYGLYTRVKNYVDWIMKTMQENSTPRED
T2 sequence (P09871 16-437 partner limits assumed): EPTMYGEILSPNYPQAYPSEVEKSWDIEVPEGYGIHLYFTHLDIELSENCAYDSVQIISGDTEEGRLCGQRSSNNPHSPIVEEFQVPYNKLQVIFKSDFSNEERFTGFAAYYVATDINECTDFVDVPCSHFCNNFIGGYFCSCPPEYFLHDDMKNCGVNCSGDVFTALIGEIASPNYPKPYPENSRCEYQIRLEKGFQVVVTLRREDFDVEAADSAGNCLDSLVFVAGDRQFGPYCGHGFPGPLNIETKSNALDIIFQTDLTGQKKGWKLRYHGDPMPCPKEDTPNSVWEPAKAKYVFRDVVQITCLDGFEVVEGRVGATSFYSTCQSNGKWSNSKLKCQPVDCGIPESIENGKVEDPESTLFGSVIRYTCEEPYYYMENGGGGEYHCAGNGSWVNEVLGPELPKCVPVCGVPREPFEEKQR

acetyl cholinesterase = test: inhibition of bovine acetyl cholinesterase
trypsin [7] = settings: large excess with respect to enzyme; cited from earlier work
chymotrypsin [8] = settings: large excess with respect to enzyme; cited from earlier work
[9] = neutral pH, approximately 10-fold excess of reagent over enzyme, FIG. 1

N=C(N)c1cccc(CS(=O)(=O)F)c1 [MAPMSF, m-Amidinophenylmethylsulfonylfluoride]
loss of activity (chymotrypsin [1]): no loss of activity
inactivation (in words) (Trypsin [2]): slowly inactivated

N=C(N)c1ccc(CS(=O)(=O)F)cc1 [PAPMSF, p-amidinophenylmethylsulfonylfluoride]
% Activity Remaining (Trypsin [3]; 1 min): 0%
% Activity Remaining (Trypsin [3]; 5 min): 0%
% Activity Remaining (Trypsin [3]; 10 min): 0%
recovery of enzymatic activity after dialysis (irreversibility) (Trypsin [3]; dialysis of inactivated trypsin): did not lead to recovery of enzymatic activity
inactivation (in words) (Trypsin [3]; [9]): rapidly inactivated
rate of inactivation of trypsin, pH dependence (Trypsin [3]; pH 3.0, 5.0 or 7.4): essentially unchanged
solubility (solubility in water): ≤ 10 mM
% Activity Remaining (Cl-r; Cl-r 4.8 μgm/ml, PAPMSF 130 μM, 10 min): 25%
inactivation (in words) (Cl-r; [9]): rapidly inactivated
inhibition at lower concentrations (in words) (serine proteases [4]): still an effective inhibitor
inhibition (in words) (chymotrypsin [5]): not inhibited
% Activity Remaining (Thrombin; 1 min): 26%
% Activity Remaining (Thrombin; 5 min): 24%
% Activity Remaining (Thrombin; 10 min): 21%
inactivation (in words) (Thrombin; [9]): rapidly inactivated
reactivity / activity relative to meta form (serine proteases [6]): higher activity than the meta form
stability in water at high pH (stability; aqueous solutions above pH 8): can hydrolyze to sulfonic acid in water at high pH
stability in solution in organic solvents (stability; methanol, acetone, ethanol, dimethylsulfoxide, acetonitrile, dimethylformamide and the like): stable in solution in organic solvents
stability of salts at physiological conditions (stability; pH and contact with aqueous based body fluids): good stability at physiological conditions
% Activity Remaining (Cl-s; 1 min): 60%
% Activity Remaining (Cl-s; 5 min): 59%
% Activity Remaining (Cl-s; 10 min): 52%
inactivation (in words) (Cl-s; [9]): rapidly inactivated
reaction with acetyl cholinesterase (in words) (acetyl cholinesterase): does not react with acetyl cholinesterase
toxic properties compared with diisopropylfluorophosphate (in words) (acetyl cholinesterase; inferred from lack of reaction with acetyl cholinesterase): does not have the toxic properties previously described for diisopropylfluorophosphate
inhibition (in words) (acetyl cholinesterase; [9]): not inhibited

O=S(=O)(F)Cc1ccccc1 [Phenylmethanesulfonylfluoride]
inhibition (in words) (trypsin [7]): inhibits both trypsin and chymotrypsin
inhibition (in words) (chymotrypsin [8]): inhibits both trypsin and chymotrypsin
